# Reference: patent US8778931B2, “Substituted hydroxamic acids and uses thereof” (Millennium Pharmaceuticals, Inc., priority 2010, dated 2014)
# Tests used:
# [1] = Intrinsic Clearance in Microsomes (dog); assay type: in vitro ADME; conditions: liver microsomes, pH 7.4, 2 μM test compound, read-out: In Vitro Microsomal Intrinsic Clearance, Dog CL int (converted)
# Procedure: (§1) The following reagents and stock solutions are required for determination of microsomal clearance.
# (§2) • 1. 0.1 M potassium phosphate buffer, pH 7.4: • Stock A (1.0 M): 136.5 g of monobasic potassium phosphate (Sigma #P5379) in 1 L of nanopure water. • Stock B (1.0 M): 174.2 g of dibasic potassium phosphate (Sigma #P8281) in 1 L of nanopure water. • Mix 40.5 mL of stock B+9.5 mL of stock A, adjust pH with monobasic potassium phosphate, qs to 500 mL with nanopure water to give 0.1M potassium phosphate buffer, pH 7.4. • 2. […] NADPH: β-nicotinamide adenine dinucleotide phosphate, reduced form (Sigma #N1630) • 4. UDPGA: Uridine 5′-Diphosphote Glucuronic Acid, Triamnonium salt (Sigma #U-5625) • 5. Alamethicin (Sigma #A-4665-25) • 6. MgCl2: Magnesium chloride (Sigma #M8266) • 7. DMSO: Dimethyl sulfoxide (Sigma #D4540) • 8. 7EC: 7-Ethoxycoumarine (Sigma #E1379), positive control. • 9. Carbutamide (Aldrich cat #38157-8), internal standard. Stock Solutions: • 1. 10 mM stock solution of test compound in DMSO • 200 μM test solution of test compound: 10 μL of 10 mM test compound stock solution+490 μL of 75% ACN/water • 2. 10 mM stock solution of 7-Ethoxycoumarin in DMSO (positive control) • 200 μM test solution of 7-Ethoxycoumarine: 10 μL of 10 mM 7EC stock solution+490 μL of 75% ACN/water. • 3. 10 mM carbutamide stock (internal standard): Dissolve 2.71 mg of carbutimide in 1 mL DMSO. • 1 μM carbutamide solution: 100 μL of 10 mM stock solution in • 1 L of acetonitrile, store at 4° C. • 4. 3 mM MgCl2 in 0.1 M K-phosphate buffer: • Dissolve 28.5 mg of anhydrous MgCl2 in 100 mL of 0.1 M K-phosphate buffer, pH 7.4. • 5. 4× Stock Solution of Cofactors Mixture
# (§3) 16 mM NADPH in 0.1 M K-phosphate buffer, pH 7.4 containing MgCl2.
# (§4) 20 mM UDPGA in 0.1 M K-phosphate buffer, pH 7.4 containing MgCl2
# (§5) Aliquot equal volume of stock solution of NADPH and UDPGA to make the final stock solution of cofactor mixture as follows:
# (§6) 10 mM UDPGA • 6. Add 1.25 mL of methanol directly to the bottle of alamethicin. Invert 10 times to dissolve the alamethicin. This yields a 20 mg/ml solution of alamethicin. […]
# [2] = Intrinsic Clearance in Microsomes (rat); assay type: in vitro ADME; conditions: liver microsomes, pH 7.4, 2 μM test compound, read-out: In Vitro Microsomal Intrinsic Clearance, Rat CL int (converted)
# Procedure: as §1, §2, §3, §4, §5, §6
# [3] = biological target: T1, purified human HDAC6 (Homo sapiens, UniProt Q9UBN7); experiment: HDAC6 Enzyme Assay; assay type: biochemical; conditions: HDAC6, 0.37 μM concentration; read-out: Percentage Inhibition (%)
# T1 construct: purchased BPS Bioscience 5006
# T1 sequence (Q9UBN7 1-1215): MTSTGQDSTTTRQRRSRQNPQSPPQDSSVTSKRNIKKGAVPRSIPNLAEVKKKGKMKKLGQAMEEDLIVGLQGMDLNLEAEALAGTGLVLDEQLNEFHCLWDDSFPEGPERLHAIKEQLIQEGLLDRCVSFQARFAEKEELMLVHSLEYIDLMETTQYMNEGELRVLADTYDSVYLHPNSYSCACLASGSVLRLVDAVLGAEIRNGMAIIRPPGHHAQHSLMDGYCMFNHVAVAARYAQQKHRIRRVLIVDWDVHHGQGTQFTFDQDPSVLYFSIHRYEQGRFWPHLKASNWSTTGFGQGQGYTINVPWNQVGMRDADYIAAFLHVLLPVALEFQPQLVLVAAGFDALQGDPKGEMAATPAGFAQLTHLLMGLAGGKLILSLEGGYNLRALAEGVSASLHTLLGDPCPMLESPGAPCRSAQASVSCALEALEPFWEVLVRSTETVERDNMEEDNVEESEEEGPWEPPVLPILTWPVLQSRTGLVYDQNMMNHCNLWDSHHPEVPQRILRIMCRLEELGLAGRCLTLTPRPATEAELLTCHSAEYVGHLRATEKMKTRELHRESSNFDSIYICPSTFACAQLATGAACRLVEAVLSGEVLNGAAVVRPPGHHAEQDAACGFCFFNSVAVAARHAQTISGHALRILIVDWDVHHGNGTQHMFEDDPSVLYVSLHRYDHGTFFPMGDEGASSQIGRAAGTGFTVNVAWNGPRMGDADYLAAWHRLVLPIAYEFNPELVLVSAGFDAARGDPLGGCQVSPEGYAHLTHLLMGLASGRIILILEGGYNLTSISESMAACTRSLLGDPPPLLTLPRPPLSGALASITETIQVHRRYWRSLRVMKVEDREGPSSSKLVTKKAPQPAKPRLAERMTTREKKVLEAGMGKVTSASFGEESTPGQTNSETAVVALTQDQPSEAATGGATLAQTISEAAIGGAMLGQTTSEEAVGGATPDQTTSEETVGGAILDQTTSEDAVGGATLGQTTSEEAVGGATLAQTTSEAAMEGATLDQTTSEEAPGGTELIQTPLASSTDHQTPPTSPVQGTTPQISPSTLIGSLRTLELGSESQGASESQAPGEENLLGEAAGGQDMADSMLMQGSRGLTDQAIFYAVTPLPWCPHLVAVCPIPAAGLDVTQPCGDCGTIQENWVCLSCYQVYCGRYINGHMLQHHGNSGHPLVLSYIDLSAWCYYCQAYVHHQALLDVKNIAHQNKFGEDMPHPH
# Procedure: To measure the inhibition of HDAC6 activity, purified human HDAC6 (BPS Bioscience; Cat. No. 5006) is incubated with substrate Ac-Arg-Gly-Lys(Ac)-AMC peptide (Bachem Biosciences; Cat. No. I-1925) for 1 hour at 30° C. in the presence of test compounds or vehicle DMSO control. The reaction is stopped with the HDAC inhibitor trichostatin A (Sigma; Cat. No. T8552) and the amount of Arg-Gly-Lys-AMC generated is quantitated by digestion with trypsin (Sigma; Cat. No. T1426) and subsequent measurement of the amount of AMC released using a fluorescent plate reader (Pherastar; BMG Technologies) set at Ex 340 nm and Em 460 nm. Concentration response curves are generated by calculating the fluorescence increase in test compound-treated samples relative to DMSO-treated controls, and percentage inhibition values at a single concentration or enzyme inhibition (IC50) values are determined from those curves. One skilled in the art will appreciate that the values generated either as percentage inhibition at a single concentration or IC50 values are subject to experimental variation.
# [4] = Intrinsic Clearance in Microsomes (human); assay type: in vitro ADME; conditions: liver microsomes, pH 7.4, 2 μM test compound, read-out: In Vitro Microsomal Intrinsic Clearance, Human CL int
# Procedure: as §1, §2, §3, §4, §5, §6
Compound,CLint scaled at 2 µM [1],CLint scaled at 2 µM [2],inhibition at 0.37 µM [3],CLint scaled at 2 µM [4]
"CC1(C(=O)N2CCc3cc(C(=O)NO)ccc3C2)CCNCC1 [Compound I-1, N-hydroxy-2-[(4-methylpiperidin-4-yl)carbonyl]-1,2,3,4-tetrahydroisoquinoline-6-carboxamide]",< 7.83 mL/min/kg,< 14.2 mL/min/kg,79.7%,< 6.33 mL/min/kg
"CCN1CCC(C)(C(=O)N2CCc3cc(C(=O)NO)ccc3C2)CC1 [Compound I-2, 2-[(1-ethyl-4-methylpiperidin-4-yl)carbonyl]-N-hydroxy-1,2,3,4-tetrahydroisoquinoline-6-carboxamide]",< 7.83 mL/min/kg,< 14.2 mL/min/kg,78.3%,< 6.33 mL/min/kg
"O=C(NO)c1ccc2c(c1)CCN(Cc1ccc(C3CCNCC3)cc1)C2 [Compound I-3, N-hydroxy-2-(4-piperidin-4-ylbenzyl)-1,2,3,4-tetrahydroisoquinoline-6-carboxamide]",–,–,80.7%,–
"CC1(C(=O)Nc2ccc(CN3CCc4cc(C(=O)NO)ccc4C3)cc2)CCNCC1 [Compound I-4, N-hydroxy-2-(4-{[(4-methylpiperidin-4-yl)carbonyl]amino}benzyl)-1,2,3,4-tetrahydroisoquinoline-6-carboxamide]",–,–,72.2%,–
"CC(C)(C)OC(=O)N1CCC(c2ccc(CN3CCc4cc(C(=O)NO)ccc4C3)cc2)CC1 [Compound I-5, tert-butyl 4-(4-{[6-[(hydroxyamino)carbonyl]-3,4-dihydroisoquinolin-2(1H)-yl]methyl}phenyl)piperidine-1-carboxylate]",–,–,46.2%,–
"CC(C)(C)OC(=O)N1CCC(C)(C(=O)Nc2ccc(CN3CCc4cc(C(=O)NO)ccc4C3)cc2)CC1 [Compound I-6, tert-butyl 4-{[(4-{[6-[(hydroxyamino)carbonyl]-3,4-dihydroisoquinolin-2(1H)-yl]methyl}phenyl)amino]carbonyl}-4-methylpiperidine-1-carboxylate]",–,–,61%,–
"CC(C)(C)OC(=O)N1CCC(C)(C(=O)N2CCc3cc(C(=O)NO)ccc3C2)CC1 [Compound I-13, tert-butyl 4-{[6-[(hydroxyamino)carbonyl]-3,4-dihydroisoquinolin-2(1H)-yl]carbonyl}-4-methylpiperidine-1-carboxylate]",31.7 mL/min/kg,46.7 mL/min/kg,88.8%,< 6.33 mL/min/kg
